Data on 2 compounds can be found in patent US12234240B2, “Substituted imidazo[5,1-d][1,2,3,5]tetrazines for the treatment of cancer” (The Board of Trustees of the University of Illinois, priority 2018, dated 2025).

The subject of one data set is U87 cells. Description: Cell viability, Alamar Blue, 7-day incubation, U87. The format is cell-based. The conditions noted are these: Homo sapiens, U-87 MG, 168 h, MGMT −, error SEM. The procedure: (§1) Anticancer activity of C8 substituted imidazotetrazines. With a suite of imidazotetrazines in hand, each compound was evaluated against a panel of human GBM cell lines (Table 1a, Table 1b).
On the technique in general: The colour change of resazurin is a common sign of viable cells or microbes.

Another data set has as its system D54 cells. Description: Cell viability, Alamar Blue, 7-day incubation, D54. The format is cell-based. The conditions noted are these: Homo sapiens, D54, 168 h, MGMT −, error SEM. The procedure: as §1
The subject of data set [1] is T98G cells. Description: Cell viability, Alamar Blue, 7-day incubation, T98G. The format is cell-based. Particulars: Homo sapiens, 168 h, MGMT +, error SEM. How it is done: as §1
Data set [2] has as its system GBM Br23c oncospheres intracranially implanted. Description: Intracranial mouse model of GBM (Br23c oncospheres). It is filed as in vivo. The conditions noted are these: oral gavage, 15 mg/kg TMZ or equimolar dose. From the text: FIG. 5. Evaluation of imidazotetrazines in intracranial mouse models of GBM. GBM Br23c oncospheres were intracranially implanted into female athymic nude mice. Treatment was started 5 days post implantation. […] Compounds were formulated in 10% PEG in PBS immediately prior to each treatment. Number of mice per treatment cohort≥5. Survival curves were compared using log-rank test.
in vivo Efficacy Models. Human GBM Br23c stem-like neurosphere cells were intracranially implanted in female athymic nude mice (150,000 cells/mouse). […] Mice were observed daily for any signs of deterioration, neurotoxicity, or movement disorders. They were inspected for signs of pain and distress, as in accordance with the Johns Hopkins Animal Care and Use Guidelines.

Another data set can be described thus: physchem. Particulars: buffered saline (PBS), pH 7.4.
The test system of data set [3] is Br23c GBM oncosphere cell line. Description: Cell viability, Alamar Blue, 7-day, Br23c GBM oncosphere line. It is filed as cell-based. The conditions noted are these: Homo sapiens, 168 h, error SEM, read-out: 7-day IC50 MGMT − Br23C.
Data set [4] in a line: Mouse liver microsome stability assay. The format is in vitro ADME. The procedure: (§2) Liver microsome stability.
(§3) Mouse Liver Microsome Stability Assay. A mixture of PBS (pH 7.4), NADPH regenerating system solution A (Corning Life Sciences), and NADPH regenerating system solution B (Corning Life Sciences) was incubated at 37° C. in a shaking incubator for 5 min. Next, compound was added in DMSO (final concentration 50 μM, 0.5% DMSO) before ice-cold mouse liver microsomes (Thermo Fisher, male CD-1 mice, pooled) were added (final protein concentration of 1 mg/mL). An aliquot was immediately removed, quenched with an equal volume of 100 μM internal standard and 0.5% hydrochloric acid in ice-cold acetonitrile, and centrifuged at 13,000 rcf for 3 min. The supernatant was diluted 1:5 in ddH2O and analyzed by LC-MS. The reactions were incubated at 37° C. in a shaking incubator for 2 h. A second aliquot was removed, quenched and diluted as before and analyzed by LC-MS. The ratio of the areas of analyte:internal standard at 2 hours was compared to the ratio at t0 to determine the percentage of compound remaining. Analysis was performed on an Agilent 6230 LC/MS TOF system with a 1.8 μm, 2.1×50 mm Agilent ZORBAX Eclipse Plus C18 column.
In general terms: Microsomes from liver hold many membrane-bound enzymes, among them those of drug oxidation.

Data set [5] is described as follows: Stability in the absence of microsomes (microsomes replaced with PBS). Particulars: liver microsomes replaced with PBS, percentage remaining relative to t0. The format is physicochemical. The procedure:
as §2, §3

Data set [6] in a line: Assessment of hematological toxicity in vivo. The conditions noted are these: mice. The procedure: Assessment of hematological toxicity. […] Both lymphocyte (FIG. 3b) and neutrophil (FIG. 8a) concentrations were decreased in TMZ-treated mice. […] Total WBC, lymphocyte, and neutrophil counts for mice treated with these compounds were equivalent to those of control mice.
Assessment of Hematological Toxicity. Male CD-1 IGS mice (n=4 mice/group) were administered a single dose of 125 mg/kg compound intravenously. Imidazotetrazines were formulated with SBEβCD in sterile water immediately prior to injection. Seven days post-treatment, mice were humanely sacrificed and whole blood was collected for assessment of total white blood cells, lymphocytes, neutrophils, platelets, and red blood cells.

Data set [7] has as its system T98G cells. Description: cells. The format is cell-based. How it is done:
FIG. 4. Imidazotetrazines were added to T98G cells with or without 3 h pre-treatment of O6BG (100 μM). IC50 values after 7-day incubation and fold changes between (+/−) O6BG treatments are reported. […] Error is SEM, n≥3. Statistical significance was determined by using a two-sample Student's t-test (two-tailed test, assuming equal variance).

A further data set relates to genomic DNA of U87 cells. Description: O6-methyldeoxyguanosine quantitation in U87 cells. It is filed as cell-based, human. Particulars: 100 or 1000 μM, 8 hours. How it is done: Novel imidazotetrazines induce alkylation-mediated cancer cell death. […] After 8 hours of incubation with compound, the genomic DNA was isolated, quantified, and hydrolyzed to its constituent deoxyribonucleosides, which were quantitated via LC-MS/MS analysis. […] Further confirmation that the novel compounds remain DNA alkylators was obtained upon pre-treatment with MGMT inhibitor O^6-benzylguanine (O6BG). O6BG is a pseudosubstrate for MGMT that quenches cellular stores of the enzyme, leading to the persistence of O^6-methylguanine DNA adducts.
O^6-Methyldeoxyguanosine Quantitation. U87 cells were plated at 1×10^6 c/w in a 6-well plate before they were treated with compound at the indicated concentration (1% final concentration DMSO). After 8 h incubation, the cells were harvested and pelleted. Genomic DNA was extracted using the DNeasy Blood & Tissue Kit (Qiagen, ID: 69504). DNA was then precipitated using the following procedure: 1/10 v/v 3M sodium acetate (pH 5.2) and 2.5× v/v ethanol was added to each sample which was then kept at −80° C. for 1 h. […] The concentration of DNA in each sample was quantified measuring absorbance on a NanoDrop 2000 UV-Vis Spectrophotometer (Thermo Fisher). […] Hydrolyzed samples were then submitted for LC-MS/MS quantitation. Samples were analyzed with a 5500 QTRAP LC/MS/MS system (AB Sciex) with a 1200 series HPLC system (Agilent).

The next data set concerns human GBM cell lines. Description: Viability in panel of human GBM cell lines. It is filed as cell-based. How it is done: as §1
For data set [8] the following is noted: cited from earlier work.
In another data set the test system is glioblastoma. The conditions noted are these: cited from earlier work.
The mark [9] stands for this setting: Table 1a, 7 days, n ≥ 3, read-out: IC50 U87.
The mark [10] stands for this setting: Table 1a, 7 days, read-out: IC50 D54.
Setting [11] is: Table 1a, 7 days, read-out: IC50 T98G.

The structures appear in SMILES notation. Like-named read-outs stand apart in the source and are kept apart here. Bounds are passed on as bounds.

Description for physchem: Hydrolytic stability of C8 substituted imidazotetrazines. […] A HPLC assay was developed to quantify the fraction of intact prodrug remaining in solution after 2 hours at pH 7.4, 37° C.

By IC50 is commonly meant the point on the concentration scale where inhibition reaches its midpoint. Usually half-life stands for how long it takes for the measured level to halve. As to `Cc1ncn2c(=O)n(C)nnc12` [Compound 14, 3,8-dimethylimidazo[5,1-d][1,2,3,5]tetrazin-4(3H)-one], the half-inhibitory concentration (IC50) with U87 cells (setting [9]) was determined as 3 ± 1 µM; with D54 cells (setting [10]), 6 ± 3 µM; with T98G cells [1] (setting [11]), 6 ± 1 µM. In addition, the “effect on survival in words” value in data set [2] is recorded as “no effect”. For the same compound, in the data set “physchem”, the half-life was 40 h.
As to `Cn1nnc2c(C(N)=O)ncn2c1=O` [TMZ, temozolomide, reference compound], the IC50 is 51 ± 8 µM with U87 cells (setting [9]); 51 ± 8 µM in the data set on U87 cells (Table 1b, read-out: 7-day IC50 U87); 12 ± 1 µM in the data set with D54 cells (setting [10]); 12 ± 1 µM with D54 cells (Table 1b, read-out: 7-day IC50 D54); 660 ± 10 µM in the data set on T98G cells [1] (setting [11]); 660 ± 10 µM with T98G cells [1] (Table 1b, read-out: 7-day IC50 T98G). The half-inhibitory concentration (IC50) in data set [3] is 5.2 ± 0.2 µM; with T98G cells [7] (Homo sapiens, 168 h, without O6BG, 7-day incubation) it was 660 ± 10 µM; in the data set on human GBM cell lines (GBM cell lines with negligible MGMT expression, read-out: IC50 in cell lines with negligible MGMT expression) it was at most 50 µM; in the data set with human GBM cell lines (GBM cell lines with significant MGMT expression, read-out: IC50 in cell lines with significant MGMT expression), over 300 µM. Moreover, the “Stability (2 h, Microsomes)” value in data set [4] (2 h, percentage remaining relative to t0, error SEM, n ≥ 2) was 87 ± 6%. Further, in data set [4] (mouse liver microsomes, 2 hours), the “metabolic stability in words” value is reported as “insensitive to metabolic perturbation”. Moreover, the “Stability (2 h, No Microsomes)” value in data set [5] is on record as 86 ± 4%. In addition, the “Cohort weight 7 days Post” value in data set [6] (7 days after single IV dose of 125 mg/kg, error SEM, 4 mice) was 32 ± 1 g. Further, the “Cohort weight Pre-treatment” value in [6] (prior to single IV dose of 125 mg/kg, error SEM, 4 mice) came to 31 ± 1 g. For the same compound, the “myelosuppression / white blood cell effect” value in [6] (single IV dose 125 mg/kg, complete blood count after 7 days) is on record as “white blood cell (WBC) depletion”. Also, the “enhancement in cytotoxicity after O6BG pre-incubation” value in the data set with T98G cells [7] (O6BG 100 μM) is “eight-fold”. For the same compound, in the data set with genomic DNA of U87 cells, the “concentration of O6-methylated deoxyguanosine” value was “Dose dependent increases”. For the same compound, the “effect on survival in words” value in data set [2] is recorded as “significantly increased median survival compared with vehicle”. Besides, the “cerebral spinal fluid concentrations as percent of those in the plasma” value in data set [8] (humans) is listed as 20%. In addition, in data set [8] (in vivo and in aqueous solutions in vitro), the half-life was about 2 h. Also, in the data set with glioblastoma (TMZ-treated patients), the “myelotoxicity incidence in treated patients” value is about 20%. In the data set on glioblastoma (patients whose tumors do not express MGMT), the median survival entry is on record as “approximately two”.
